Reference: US20220105147A1, “CROTON LECHLERI COMPOSITIONS FOR USE IN THE TOPICAL TREATMENT OF ACUTE BACTERIAL SKIN OR SKIN STRUCTURE INFECTION” (priority 2019, published 2022)
In brackets after ≈: the same amount, converted by molar mass.

Tests used:
[1] = system: MSSA and MRSA strains (Mupirocin-resistant and Mupirocin-susceptible); assay: In vitro MIC, panel of MSSA and MRSA strains; type: cell-based, Staphylococcus aureus; settings: for MIC: Staphylococcus aureus
From the text: (§1) Measures included the minimum inhibitory concentration (MIC) which is the lowest concentration of AB-101 that prevents visible growth of the bacterium or pathogen, and minimum bactericidal concentration (MBC) which is the lowest concentration of an antibacterial agent required to kill a bacterium.

[2] = system: MSSA and MRSA strains (Mupirocin-resistant and Mupirocin-susceptible); assay: In vitro MBC, panel of MSSA and MRSA strains; type: cell-based, Staphylococcus aureus; settings: purified extract of taspine
From the text: as §1

[3] = system: Enterococcus faecalis (ATCC 29212); assay: Agar Well Diffusion Assay (K-B disks); type: cell-based; settings: EFAECL; K-B disk, 25 uL, dilutions in DMSO; width of zone; one value per test date
Experimental: An Agar Well Diffusion Assay pilot evaluation of AB-101 BRM was conducted to seek an initial signal of the activity of AB-101 BRM against various bacteria. AB-101 BRM was tested against the following bacterial species: • Streptococcus pneumoniae (ATCC 49619) (SPNEU) Gram (+) • Streptococcus pyogenes (clinical isolate) (GABHS) Gram (+) • Enterococcus faecalis (ATCC 29212) (EFAECL) Gram (+) • Coagulase-negative Staphylococcus (clinical isolate) (CNS) Gram (+) • Escherichia coli (ATCC 25922) (EC) Gram (−) • Pseudomonas aeruginosa (ATCC 27853) (PAER) Gram (−) • Klebsiella pneumoniae (ATCC 700603) (KPNEU) Gram (−) • Staphylococcus aureus (ATCC […]) (SAUR) Gram (+) • Methicillin-resistant Staphylococcus aureus (ATCC 49476) (MRSA) Gram (+)
Isolates were subcultured the day before the Agar Well Diffusion Assay was performed. On the day of the assay, a bacterial suspension (0.08-0.12 MacFarland units) of each bacteria isolate was made in Trypticase Soy Broth (TSB), and these suspensions were used to plate a lawn of bacterial organisms on Mueller-Hinton agar or Mueller-Hinton sheep's blood agar. A control antibiotic Kirby-Bauer (K-B) disk plus K-B disks containing 25 uL of AB-101 dilutions were placed on the plates, and the plates were incubated overnight. The next day, the width of the zone of growth inhibition surrounding each K-B disk was recorded (in mm). […]

[4] = ATCC 29213 / MRSA / MSSA, strain ATCC 29213, QC control

Q: What does the source list for `C/C(=C\C(=O)OCCCCCCCCC(=O)O)C[C@@H]1OC[C@H](C[C@@H]2O[C@H]2[C@@H](C)[C@H](C)O)[C@@H](O)[C@H]1O` [Mupirocin]?
A: MIC [1, 4]: 0.25 to 0.5 µg/mL (≈ 0.499 to 0.999 µM); MIC ([1]; strain 1674606, MupirocinR, MSSA): > 256 µg/mL; MIC ([1]; strain 1674607, MupirocinR, MRSA): > 256 µg/mL; MIC ([1]; strain CDC 227, MupirocinS, MRSA): 0.25 to 0.5 µg/mL (≈ 0.499 to 0.999 µM); MIC ([1]; strain CDC 462, MupirocinS, MSSA): ≤ 0.25 µg/mL; MIC ([1]; strain CDC 464, MupirocinS, MSSA): ≤ 0.25 µg/mL; MIC ([1]; strain CDC 484, MupirocinS, MSSA): ≤ 0.25 µg/mL; MIC ([1]; strain CDC 485, MupirocinS, MSSA): ≤ 0.25 µg/mL

Q: What does the source list for `COc1ccc2c(=O)oc3c(OC)cc(CCN(C)C)c4c(=O)oc1c2c34` [Taspine, taspine]?
A: activity against MSSA and MRSA (MIC) ([1]; highest concentration tested 50% relative to AB-101 = 10 μg/mL): does not have activity; activity against MSSA and MRSA (MBC) [2]: does not have activity

Q: For `CC1(C)S[C@@H]2[C@H](NC(=O)[C@H](N)c3ccccc3)C(=O)N2[C@H]1C(=O)O` [AMP, Ampicillin], which “Zone of Inhibition (MM)” value [3] is on record?
A: The value was “AMP 8 MM”.

Q: How did the MIC [1, 4] turn out when `COc1cccc(OC)c1C(=O)N[C@@H]1C(=O)N2[C@@H]1SC(C)(C)[C@@H]2C(=O)O` [Methicillin] was run?
A: Its MIC is 1 to 2 µg/mL (≈ 2.63 to 5.26 µM).

Q: Which “Zone of Inhibition (MM)” value [3] does the source give for Gentamicin [GM] here?
A: The value was “GM 5 MM”.
